Data on 3 molecules can be found in US20210246120A1, “METHOD OF PREPARATION AND USE OF PHOSPHOINOSITIDE 3-KINASE INHIBITORS IN TREATING CANCER” (BIOMEDICAL RESEARCH FOUNDATION OF THE ACADEMY OF ATHENS …, priority 2018, published 2021).

For experiment [1], the target named is T1, wild type PI3Kα protein (Homo sapiens, UniProt P42336).
T1 construct: purchased Millipore
The experiment can be described thus: In vitro cell-free PI3Kα activity assay using PIP2 containing liposomes (wild type). The experiment is classed as biochemical.

For experiment [2], the target named is T2, mutant PI3Kα H1047R protein (Homo sapiens, UniProt P42336, H1047R).
T2 construct: purchased Millipore
T2 sequence (P42336 whole entry H1047R): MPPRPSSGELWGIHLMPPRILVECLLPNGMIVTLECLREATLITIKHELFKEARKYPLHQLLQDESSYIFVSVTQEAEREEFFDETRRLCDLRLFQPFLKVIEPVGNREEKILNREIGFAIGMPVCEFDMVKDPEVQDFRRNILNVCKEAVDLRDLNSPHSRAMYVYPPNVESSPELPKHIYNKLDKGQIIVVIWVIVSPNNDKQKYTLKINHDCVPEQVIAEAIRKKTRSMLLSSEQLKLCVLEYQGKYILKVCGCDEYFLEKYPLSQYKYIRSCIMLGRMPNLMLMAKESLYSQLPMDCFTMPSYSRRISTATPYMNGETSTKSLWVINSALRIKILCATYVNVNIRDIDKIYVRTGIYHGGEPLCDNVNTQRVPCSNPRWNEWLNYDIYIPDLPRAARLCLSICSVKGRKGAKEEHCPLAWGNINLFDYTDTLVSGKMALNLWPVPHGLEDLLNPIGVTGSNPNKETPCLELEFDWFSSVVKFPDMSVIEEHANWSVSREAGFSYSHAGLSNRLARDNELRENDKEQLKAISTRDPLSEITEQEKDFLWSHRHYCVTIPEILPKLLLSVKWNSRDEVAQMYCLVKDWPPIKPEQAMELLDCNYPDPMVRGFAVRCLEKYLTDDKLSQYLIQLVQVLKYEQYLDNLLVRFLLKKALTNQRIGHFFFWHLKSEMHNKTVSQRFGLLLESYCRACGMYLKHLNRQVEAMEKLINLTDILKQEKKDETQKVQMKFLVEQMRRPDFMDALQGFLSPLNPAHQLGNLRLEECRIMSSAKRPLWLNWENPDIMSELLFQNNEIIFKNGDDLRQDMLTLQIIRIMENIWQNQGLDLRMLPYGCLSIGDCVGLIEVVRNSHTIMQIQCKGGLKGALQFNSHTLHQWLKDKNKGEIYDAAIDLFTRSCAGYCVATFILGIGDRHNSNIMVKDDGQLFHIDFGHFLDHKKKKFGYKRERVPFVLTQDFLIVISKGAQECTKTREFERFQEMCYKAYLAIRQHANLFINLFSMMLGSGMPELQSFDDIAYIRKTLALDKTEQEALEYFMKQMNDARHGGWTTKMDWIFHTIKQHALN
T2 sequence (P27986 whole entry partner): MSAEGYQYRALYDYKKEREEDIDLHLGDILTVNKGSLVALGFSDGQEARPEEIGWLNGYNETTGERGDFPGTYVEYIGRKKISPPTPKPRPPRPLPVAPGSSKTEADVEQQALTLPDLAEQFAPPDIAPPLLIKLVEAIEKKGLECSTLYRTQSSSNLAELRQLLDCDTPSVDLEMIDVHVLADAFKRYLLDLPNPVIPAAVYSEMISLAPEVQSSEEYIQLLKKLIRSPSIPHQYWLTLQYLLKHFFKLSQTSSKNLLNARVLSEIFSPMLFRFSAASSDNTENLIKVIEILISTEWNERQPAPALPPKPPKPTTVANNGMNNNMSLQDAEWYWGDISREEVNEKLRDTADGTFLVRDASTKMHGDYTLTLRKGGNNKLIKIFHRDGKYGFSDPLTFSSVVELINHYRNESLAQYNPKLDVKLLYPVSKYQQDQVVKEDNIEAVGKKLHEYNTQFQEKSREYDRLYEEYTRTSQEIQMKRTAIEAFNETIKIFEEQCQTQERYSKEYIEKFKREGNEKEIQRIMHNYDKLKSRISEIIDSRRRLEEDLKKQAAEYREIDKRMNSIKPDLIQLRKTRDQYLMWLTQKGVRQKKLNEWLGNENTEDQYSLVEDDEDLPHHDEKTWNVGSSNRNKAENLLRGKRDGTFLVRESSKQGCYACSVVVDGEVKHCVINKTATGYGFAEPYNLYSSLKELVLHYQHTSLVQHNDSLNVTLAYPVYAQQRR
As to the kind of experiment: In vitro cell-free PI3Kα activity assay using PIP2 containing liposomes (H1047R mutant). To be noted: for IC50: logit-log plots, PIP2 liposomes; for Inhibition selectivity for mutant PI3Kα H1047R compared to wild-type PI3Kα: ratio of IC50 WT / H1047R. The experiment is classed as biochemical. As to the method:
PI3Kα activity assays on the identified lead compound and its analogs were performed using PIP2 containing liposomes (Gkeka et al., PLoS Comput Biol 10:e1003895 (2014)). Complexes of PIK3CA (WT or […])/PIK3R1 were obtained from Millipore. The assay was based on a protocol provided by Millipore, with modifications (Papafotika et al., in preparation) which will be further described below. In this assay, PIP3 molecules produced by PI3Kα compete with biotinylated PIP3 for binding with a recombinant GST-GRP1-PH domain (amino acids 263-380), which has been produced in bacteria, bound to glutathione coated 96-well plates. Quantitation of the competed amount of biotin-PIP3 is estimated by the peroxidase activity of streptavidin-HRP that binds to the plate and provides a measure for the activity of the protein. The compounds were preincubated with all the components of the assay mixture, except PIP2, for 10 min, at 25° C. PIP2 is added in the end of the preincubation period, thereby initiating the kinase reaction. IC50 values were calculated from dose-response curves using logit-log plots. All assays were carried out in at least three independent experiments and each concentration in triplicate. PIK-108 and wortmannin were used as controls (Gkeka et al., J Phys Chem B 119:1002-1016 (2015)).
To evaluate the in vitro activity of the compound having the formula (II) (PI3K-010), PI3Kα activity assays were performed using PIP2 containing liposomes (Gkeka et al PLOS Comp Biol 2014). In this assay, PIP3 molecules produced by PI3Kα compete with biotinylated PIP3 for binding to recombinant GST-GRP1-PH domain (amino acids 263-380), which has been produced in bacteria, bound to glutathione coated 96-well plates. Quantitation of the competed amount of biotin-PIP3 is estimated by the peroxidase activity of streptavidin-HRP that binds to the plate and provides a measure for the activity of the protein. The compounds were preincubated with all the components of the assay mixture, except PIP2, for 10 min, at 25° C. […]
To evaluate the in vitro activity of the compound having the formula (III) (PI3K-010), PI3Kα activity assays were performed using PIP2 containing liposomes (Gkeka et al PLOS Comp Biol 2014). […] Quantitation of the competed amount of biotin-PIP3 is estimated by the peroxidase activity of streptavidin-HRP that binds to the plate and provides a measure for the activity of the protein. […]
To evaluate the in vitro activity of the compound having the formula (IV) (PI3K-024), PI3Kα activity assays were performed using PIP2 containing liposomes (Gkeka et al PLOS Comp Biol 2014). […] Quantitation of the competed amount of biotin-PIP3 is estimated by the peroxidase activity of streptavidin-HRP that binds to the plate and provides a measure for the activity of the protein. […]

The test system of experiment [3] is breast cancer in WAPCre/exon20 Pik3ca*/MMTV-Myc mouse. The experiment can be described thus: Micro PET/CT imaging and Ki67 immunohistochemistry of breast tumors in WAPCre/exon20 Pik3ca*/MMTV-Myc mouse. The experiment is classed as in vivo. The source says: In order to test the in vivo activity of potential anticancer drugs, establishing a corresponding cancer animal model is required. To generate mouse tumors at chosen anatomical sites, a variant of a genetic scheme that is based on Cre/loxP recombination is often used. Depending on the tissue-specificity of the promoter driving Cre expression, corresponding tumors develop in progeny derived from matings between Cre-producer mice and Cre-responder partners carrying a dormant oncogenic transgene, which becomes functional after excision of an upstream-positioned floxed DNA segment that blocks its expression [see Politi et al. Oncogene 23:1558-1565 (2004); Klinakis et al. Proc Natl Acad Sci USA 106:2359-2364 (2009), Stratikopoulos et al. Cancer Cell 27:837-851 (2015)). To develop mouse strains carrying Pik3ca gain of function mutations (hereafter referred to as Pik3ca*), a knock-in gene targeting strategy was followed (Stratikopoulos et al. Cancer Cell 27:837-851 (2015)). Thus, either of the two hotspot mutations of the Pik3ca locus (in exon 20 or in exon 9) was targeted so that the mutated Pik3ca would be expressed from the endogenous locus and not from a transgene, thus, mimicking the expression found in human tumors. Activation of the exon 20 Pik3ca oncogenic mutation was achieved after mating the animals with WAPCre producers (WAP is a milk protein, the promoter of which is used for driving Cre expression, specifically in the mammary gland). Mammary tumors appeared in such animals after a very long latency of 490 days (median). […] These mice were used to test the efficacy of compounds discussed herein.
FIG. 6. Example of micro PET/CT imaging of WAPCre/exon20 Pik3ca*/MMTV-Myc mouse (compared with a negative wild-type control) at the beginning and end of treatment (one month) of breast cancer with the PI3K-010 compound.
PET/CT images of a WAPCre/exon20 Pik3ca*/MMTV-Myc mouse were acquired at the beginning and end of treatment ([…]) of breast cancer with the PI3K-010 compound (cf. FIG. 6). The compound was administered per os (by gavage) at 100 mg/Kg doses. […]

Structures are written as SMILES. Like-named read-outs stand apart in the source and are kept apart here.

Broadly, the IC50 is the point on the concentration scale where inhibition reaches its midpoint.

T1 sequence (P42336 whole entry): as the sequence (P42336 whole entry H1047R) above, with R1047H counted along it
T1 sequence (P27986 whole entry partner): as the sequence (P27986 whole entry partner) above

Turning to `O=C(NCc1ccccc1)c1cccc(C(=O)NCc2ccccc2)n1` [PI3K-021, N^2,N^6-dibenzylpyridine-2,6-dicarboxamide], the IC50 in experiment [1] (extrapolated, very low inhibition at the highest tested concentrations, read-out: IC50 for the WT PI3Kα, estimated by extrapolation) was over 1000 µM; in experiment [2] (read-out: IC50 for the mutant H1047R PI3Kα) it was 13.5 µM. For the same molecule, the “Inhibition selectivity for mutant PI3Kα H1047R compared to wild-type PI3Kα” value in experiment [2] is over 100 fold.

As for `c1cc(CSc2nc3ccccc3[nH]2)nc(CSc2nc3ccccc3[nH]2)c1` [PI3K-010, 2,6-bis(((1H-benzo[d]imidazol-2-yl)thio)methyl)pyridine], the “Inhibition selectivity for mutant PI3Kα H1047R compared to wild-type PI3Kα” value in experiment [2] came out at 11 fold. In addition, in experiment [3] (100 mg/Kg per os by gavage, surgically removed breast tumors, controls 69.9+5.1%), the “Proliferation index (Ki67 immunohistochemistry) after treatment” value is reported as 15.0+3.3%. Further, the “Uptake of 18F-FDG by remnants of breast cancer (PET/CT)” value in experiment [3] (100 mg/Kg per os, beginning vs end of treatment (two weeks)) is reported as “diminished uptake”. The “Immunohistochemical analysis: tumor necrosis after treatment” value in experiment [3] (100 mg/Kg per os, in comparison with the controls) is “tumor necrosis”.

Turning to `O=C(Nc1cccc(O)c1)c1cccc(C(=O)Nc2cccc(O)c2)n1` [PI3K-024, N^2,N^6-bis(3-hydroxyphenyl)pyridine-2,6-dicarboxamide], the IC50 stood at 0.006 µM in experiment [1] (logit-log plots, 100 μM ATP, PIP2 liposomes, read-out: IC50 against WT PI3Kα) and 0.064 µM in experiment [2] (100 μM ATP, read-out: IC50 against mutant H1047R PI3Kα).
